Data as given in paper PMC7356297, “Bicyclic Boronates as Potent Inhibitors of AmpC, the Class C β-Lactamase from Escherichia coli” (Biomolecules, 2020).
“And” between values parts separate entries of the source, which are not always exact repeats. Equal values may be shown once.

Legend:
DH5α Escherichia coli = test: Broth microdilution MIC of ceftazidime, strain without plasmid; type: cell-based; conditions: read-out: Minimum Inhibitory Concentration Ceftazidime
Method: (§1) Minimum inhibitory concentrations (MICs) were determined by broth microdilution in triplicate and interpreted using published Clinical and Laboratory Standards Institute (CLSI) guidelines.
(§2) Ceftazidime (CAZ) was tested alone (0.25–256 μg mL^−1) against DH5α Escherichia coli and DH5α E. coli containing the pAD7-AmpCEC plasmid and in combination with CB2, CB3, TAN, and VAB (all tested at a fixed concentration of 4 μg mL^−1) using the DH5α E. coli strain containing the pAD7-AmpCEC plasmid.

[1] = system: DH5α E. coli containing the pAD7-AmpCEC plasmid; test: Broth microdilution MIC of ceftazidime alone or with inhibitor, AmpCEC producing strain; type: cell-based, Escherichia coli
Method: as §1, §2

[2] = biological target: T1, AmpC from Escherichia coli (AmpCEC) (Escherichia coli, UniProt P00811); test: Steady-state competition kinetics of AmpCEC (100 nM) with fluorescent substrate FC-5 (Kiapp, k2/K); type: biochemical; conditions: for Ki: Kiapp, apparent inhibition constant corrected with KM of FC-5; for kinact/KI: pH 7.5, read-out: k2/K, 100 nM AmpCEC, 5 µM FC-5
T1 construct: made in house; host or cells: E. coli W3110 (pAD7 vector)
Method: (§3) All kinetic measurements were carried out in competition assays using the fluorescent substrate FC-5 [36] under steady-state conditions monitoring hydrolysis, in 100 mM phosphate buffer pH 7.5 supplemented with 0.01% (v/v) Triton X-100 (Assay Buffer). Fluorescence was measured using a PHERAstarFS (BMG Labtech, Aylesbury, United Kingdom) plate-reader, recording emission spectra at λex = 380 nm and λem = 460 nm. IC50s were determined after 10 min incubation time of 500 pM AmpCEC with varying concentrations of inhibitors and assayed using 5 µM FC-5. Nonlinear regression analyses were carried out using GraphPad Prism V. 5.04 (GraphPad Software, San Diego, CA, USA).
As described for avibactam inhibition, the kinetics of bicyclic boronate inhibition of β-lactamases can be described assuming a two-step, reversible inhibition model:(1) E+I → k1 ←k−1 E:I → k2 ←k−2 E−I with E: enzyme; I: inhibitor; k1: association rate constant; k−1: dissociation rate constant; k2: binding rate constant, and k−2: recyclization rate constant.
To obtain the pseudo first-order rate constant kobs and the apparent inhibition constant Kiapp, the rate of FC-5 (5 µM) hydrolysis by AmpCEC (100 nM) was measured in the presence of varying concentrations of the inhibitor.
Plotting the resultant kobs values against the inhibitor concentration [I] (Figure S1b) and fitting to Equation (3) gives the apparent second-order rate constant (k2/K’) (3) kobs=k2+k2/K^′∗ I with K’ representing the equilibrium coefficient of AmpCEC inhibition in the presence of FC-5 in the set concentration of 5 µM.
This can then be corrected using the Michaelis constant (KM) of FC-5 for AmpCEC and the FC-5 concentration [S] according to Equation (4) to give the second-order rate constant (k2/K):(4) k2/K=k2/K^′∗ S/KM+1
The same data were used to determine the apparent inhibition constant Kiapp. The reciprocals of the initial rates were plotted against inhibitor concentration (Figure S1a), giving a straight line for which the value of the intercept divided by the slope gives Kiapp’. From this, Kiapp can be obtained after correction with the KM for FC-5 according to Equation (5):(5) Kiapp=Kiapp’/1+S/KM

[3] = biological target: T1, AmpC from Escherichia coli (AmpCEC); type: biochemical; conditions: half-life of the enzyme-inhibitor complex, ln2/koff
Method: as §3
Off rates (k-2 or koff) were measured using the jump-dilution method (Figure S1c). AmpCEC (1 µM) was incubated with the respective inhibitor (10 µM for TAN, CB2 and CB3, and 100 µM for VAB) for 30 min at room temperature, then diluted 100,000 fold in the Assay Buffer (final enzyme concentration: 10 pM) and immediately assayed with 25 µM FC-5. The data were fitted to Equation (2) with V0 in this case representing the velocity of the no-enzyme control and VS representing the initial velocity of uninhibited enzyme.
The half-life of the enzyme-inhibitor complex t1/2 is given by Equation (6):(6) t1/2=ln2/koff

[4] = biological target: T1, AmpC from Escherichia coli (AmpCEC); test: IC50 determination, 500 pM AmpCEC, 5 µM FC-5, 10 min pre-incubation; type: biochemical; conditions: pIC50, 500 pM AmpCEC, 5 µM FC-5, 10 min inhibitor pre-incubation at room temperature
Method: as §3

T1 sequence (P00811 20-377): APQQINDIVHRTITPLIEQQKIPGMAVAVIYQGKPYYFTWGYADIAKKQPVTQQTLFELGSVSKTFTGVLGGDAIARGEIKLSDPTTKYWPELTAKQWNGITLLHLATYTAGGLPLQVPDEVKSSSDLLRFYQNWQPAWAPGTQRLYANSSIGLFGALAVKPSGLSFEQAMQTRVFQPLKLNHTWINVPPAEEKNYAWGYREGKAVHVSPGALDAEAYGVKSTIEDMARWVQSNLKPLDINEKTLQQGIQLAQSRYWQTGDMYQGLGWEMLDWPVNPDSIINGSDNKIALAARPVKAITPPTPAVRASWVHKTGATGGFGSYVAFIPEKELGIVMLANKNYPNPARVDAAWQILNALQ

Q: What does the source list for `CC(C)(O/N=C(\C(=O)N[C@@H]1C(=O)N2C(C(=O)[O-])=C(C[n+]3ccccc3)CS[C@H]12)c1csc(N)n1)C(=O)O` [CAZ, Ceftazidime]?
A: MIC (DH5α Escherichia coli): 1 µg/mL; MIC ([1]; Escherichia coli, read-out: Minimum Inhibitory Concentration Ceftazidime): 256 µg/mL

Q: With `NCCN[C@H]1CC[C@H](CC(=O)N[C@H]2Cc3cccc(C(=O)O)c3OB2O)CC1` [TAN, taniborbactam] as the compound, how does the Ki ([2]; 100 nM AmpCEC, 5 µM FC-5) read?
A: 4000 nM and 3730 nM

Q: What about the kinact/KI ([2]; second-order rate constant) of the same compound?
A: 85600 ± 9200 M⁻¹ s⁻¹

Q: What about the t1/2 [3] of the same compound?
A: 4.55 ± 0.91 min

Q: And the IC50 [4]?
A: 29.5 nM

Q: `O=C(O)C[C@@H]1CC[C@H](NC(=O)Cc2cccs2)B(O)O1` [VAB, vaborbactam] was tested. Which k2/K ([2]; 100 nM AmpCEC, 5 µM FC-5, second-order rate constant) did it give?
A: 6.55 ± 0.46 M^−1 s^−1 × 10^3

Q: What about the Ki ([2]; 100 nM AmpCEC, 5 µM FC-5) of the same compound?
A: 19000 nM and 19100 nM

Q: What about the kinact/KI ([2]; second-order rate constant) of the same compound?
A: ~7000 M⁻¹ s⁻¹

Q: And the t1/2 [3]?
A: 16.8 ± 0.7 min

Q: What about the IC50 [4] of the same compound?
A: 501 nM and 479 nM

Q: How did the Ki ([2]; 100 nM AmpCEC, 5 µM FC-5) turn out when `NCc1ccc(C(=O)N[C@H]2Cc3cccc(C(=O)O)c3OB2O)cc1` [CB2] was run?
A: 3000 nM and 3260 nM

Q: What about the kinact/KI ([2]; second-order rate constant) of the same compound?
A: 81000 ± 6400 M⁻¹ s⁻¹

Q: And the t1/2 [3]?
A: 4.18 ± 0.41 min

Q: And the IC50 [4]?
A: 31.6 nM and 32.4 nM

Q: Which results are given for `O=C(O)c1cccc2c1OB(O)C(SCc1ccccc1)C2` (centres unmarked) [CB3]?
A: Ki ([2]; 100 nM AmpCEC, 5 µM FC-5): 1000 nM and 1160 nM; kinact/KI ([2]; second-order rate constant): 224000 ± 21000 M⁻¹ s⁻¹; t1/2 [3]: 0.55 ± 0.34 min; IC50 [4]: 29.5 nM; Minimum Inhibitory Concentration Ceftazidime (CAZ + inhibitor) ([1]; CAZ in combination with the inhibitor at a fixed concentration of 4 µg mL^−1, DH5α pAD7 AmpCEC): 4 µg/mL
